Literature values, collected in US6818672B1, “Treating endometriosis or infertility, or improving fertility” (Columbia Laboratories, Inc., priority 1999, dated 2004).

Experiments:
[1] = intravenous administration
[2] = tested on: myometrial activity, uterine blood flow, lower abdominal pain

Bioavailability (after oral administration, extensive first-pass sulphation): 15 and 20% | Decrease of bioavailability by concomitant food intake (oral administration with concomitant food intake): 30%
SMILES: CC(C)(C)NCC(O)c1cc(O)cc(O)c1 (centres unmarked) [terbutaline, 5-[2-[(1,1-dimethylethyl)amino]-1-hydroxyethyl]-1,3-benzenediol]
Adverse effects [1]: palpitations and peripheral tremors | Duration of effect of each spray ([2]; terbutaline inhalation, severe pain in essential dysmenorrhea): 1 h | Effect on myometrial activity, uterine blood flow and pain in dysmenorrhea ([2]; women with primary dysmenorrhea): inhibit myometrial activity, increase blood flow to the uterus, and relieve the pain
